# Experimental data taken from paper PMC467089, “Click estradiol dimers with novel aromatic bridging units: synthesis and anticancer evaluation” (Journal of Enzyme Inhibition and Medicinal Chemistry, 2024).
# Entries after “also recorded” stand apart in the source; their conditions may differ.
# Columns and labels:
# [1] = test system: CEM-DNR (daunorubicin resistant variant of CCRF-CEM); test: MTS cytotoxicity assay, CEM-DNR; format: cell-based, human; conditions: for IC50: Homo sapiens, CEM-DNR, 72 h, read-out: IC50 cytotoxic activity CEM-DNR
# Experimental: (§1) The p53 deficient variant, HCT116p53−/−, was purchased from Horizon Discovery (Cambridge, UK). The daunorubicin-resistant CCRF-CEM cell line CEM-DNR bulk and paclitaxel-resistant K562-TAX sublines were developed in-house by exposing parental cell lines to escalating concentrations of daunorubicin and paclitaxel, respectively. Cells were maintained in the recommended culture medium (Sigma-Aldrich, St. Louis, MO) supplemented with 10% foetal calf serum, 100 U/mL penicillin, and 100 μg/mL streptomycin. The HUVEC line was obtained from PromoCell (Heidelberg, Germany). The cells were cultured in endothelial cell growth medium with SupplementMix for endothelial cells (PromoCell, Heidelberg, Germany). The incubation conditions were a humidified atmosphere of 95% air and 5% CO2 at 37 °C[10]. Cells were seeded in 384-well plates and after overnight incubation treated with compounds. All tested compounds were dissolved in 100% DMSO, and fourfold serial dilutions were performed using an Echo550 liquid handler (Labcyte, San Jose, CA). The experiments were performed in technical duplicates and three biological replicates. Cells were incubated with compounds for 72 h and thereafter 5 μL of MTS reagent was added to each well.
# [2] = test system: HCT116p53−/− (p53 gene null variant of HCT116); test: MTS cytotoxicity assay, HCT116p53−/−; format: cell-based; conditions: Homo sapiens, HCT-116, 72 h, read-out: IC50 cytotoxic activity HCT116p53-
# Experimental: as §1
# [3] = test system: K562 (chronic myelogenous leukaemia); test: MTS cytotoxicity assay, K562; format: cell-based; conditions: Homo sapiens, K562, 72 h, read-out: IC50 cytotoxic activity K562
# Experimental: as §1
# [4] = test system: K562-TAX (paclitaxel-resistant variant of K562); test: MTS cytotoxicity assay, K562-TAX; format: cell-based, human; conditions: for IC50: Homo sapiens, K562-Tax, 72 h, read-out: IC50 cytotoxic activity K562-TAX
# Experimental: as §1
# [5] = test system: HCT116 (colorectal adenocarcinoma); test: MTS cytotoxicity assay, HCT116; format: cell-based; conditions: Homo sapiens, HCT-116, 72 h, read-out: IC50 cytotoxic activity HCT116
# Experimental: as §1
# [6] = MTS cytotoxicity assay, HUVEC; format: cell-based; conditions: human
# Experimental: as §1
# porcine brain tubulin = molecular target: T1, porcine brain tubulin (Sus scrofa, UniProt P02550+P02554); test: Tubulin polymerisation assay; format: biochemical; conditions: 10 μmol/L, Vmax relative to DMSO
# T1 construct: purchased Cytoskeleton, Denver, CO; host or cells: porcine brain (tissue-purified)
# T1 sequence (P02550 whole entry): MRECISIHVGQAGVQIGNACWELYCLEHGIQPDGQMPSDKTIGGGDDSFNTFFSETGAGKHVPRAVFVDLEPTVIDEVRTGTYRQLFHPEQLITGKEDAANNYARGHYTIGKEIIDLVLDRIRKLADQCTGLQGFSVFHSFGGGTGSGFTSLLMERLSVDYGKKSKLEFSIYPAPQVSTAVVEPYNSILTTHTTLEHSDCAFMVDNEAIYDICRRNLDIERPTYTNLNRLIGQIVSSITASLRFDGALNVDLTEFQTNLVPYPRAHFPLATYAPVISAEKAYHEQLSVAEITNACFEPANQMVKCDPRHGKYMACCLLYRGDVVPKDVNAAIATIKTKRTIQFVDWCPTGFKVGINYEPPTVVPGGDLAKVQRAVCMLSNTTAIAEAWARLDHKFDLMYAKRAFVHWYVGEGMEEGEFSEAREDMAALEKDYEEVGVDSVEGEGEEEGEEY
# T1 sequence (P02554 whole entry): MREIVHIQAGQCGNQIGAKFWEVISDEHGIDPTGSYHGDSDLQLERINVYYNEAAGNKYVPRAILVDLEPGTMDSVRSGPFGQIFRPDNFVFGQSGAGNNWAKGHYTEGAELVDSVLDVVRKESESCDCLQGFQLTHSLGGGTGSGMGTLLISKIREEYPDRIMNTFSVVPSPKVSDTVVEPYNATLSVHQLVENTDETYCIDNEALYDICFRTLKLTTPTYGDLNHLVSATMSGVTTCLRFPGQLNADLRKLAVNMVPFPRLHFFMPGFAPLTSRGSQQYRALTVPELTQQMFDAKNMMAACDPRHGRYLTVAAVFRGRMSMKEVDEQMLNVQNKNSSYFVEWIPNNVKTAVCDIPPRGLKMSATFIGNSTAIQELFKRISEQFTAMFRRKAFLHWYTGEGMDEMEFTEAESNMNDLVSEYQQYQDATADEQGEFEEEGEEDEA
# Experimental: Tubulin polymerisation assay kit (Cytoskeleton, Denver, CO) was used according to the manufacturer’s instructions. Polymerisation of porcine brain tubulin (>99% purity) was measured using an EnVision Multilabel Plate Reader (PerkinElmer, Waltham, MA) at 37 °C, in the presence of either 10 μmol/L test compounds or DMSO. Maximum polymerisation velocity (Vmax) was calculated from the polymerisation curves. Data visualisation was performed in OriginPro 2018b (b9.5.5.409) software (OriginLab Corporation, Northampton, MA)[10].
# [7] = test system: CCRF-CEM (childhood T-cell acute lymphoblastic leukaemia); test: MTS cytotoxicity assay, CCRF-CEM; format: cell-based; conditions: Homo sapiens, 72 h, read-out: IC50 cytotoxic activity CCRF-CEM
# Experimental: as §1
# CCRF-CEM lymphoblasts [8] = test: BrU incorporation analysis (RNA synthesis); format: cell-based, human
# Experimental: (§2) To further characterise the mode of action of studied compounds, we analysed the cell cycle profile of CCRF-CEM cells treated with compounds for 24 h. […] The compounds ED1–ED9 and ED12 induced arrest in G2/M phase of the cell cycle (Figure 2(A)). To differentiate between G2 block and mitotic arrest, we used phospho-histone H3 (Ser10) mitotic marker (Figure 2(B)). […] Generally, dimers induced a dose-dependent increase of sub G1 cell population with fragmented DNA except for ED2 and ED4 (Figure 2(C)). […] To assess the proliferation of treated cells, they were subjected to 5-bromo-2-deoxyuridine (BrDU) labelling. […] Analogously, changes in 5-bromouridine (BrU) incorporation were examined to monitor overall RNA synthesis.
# Prior to the trypsinisation, cells were treated with 1 mM BrU for 30 min. Subsequently, the cells were fixed in 1% paraformaldehyde with 0.05% of NP-40 for 15 min at RT and stored overnight at 4 °C. Fixed cells were washed with 1% glycine in PBS and stained with primary anti-BrdU antibody clone MoBu-1 crossreacting with BrU (Exbio, Vestec, Czech Republic) for 30 min at RT, washed with PBS and labelled with secondary anti-mouse-FITC antibody (Sigma-Aldrich, St. Louis, MO). Following 1-h incubation in 1% paraformaldehyde containing 0.05% NP-40, cells were stained with propidium iodide (0.1 mg/mL) and treated with RNase A (0.5 mg/mL) for 1 h at RT. The percentage of BrU positive cells was quantified using CellQuest software.
# U2OS (osteosarcoma) = test: MTS cytotoxicity assay, U2OS; format: cell-based, human; conditions: Homo sapiens, U2OS, 72 h, read-out: IC50 cytotoxic activity U2OS
# Experimental: as §1
# CCRF-CEM lymphoblasts [9] = test: BrDU incorporation analysis (DNA synthesis); format: cell-based, human
# Experimental: as §2
# Thirty minutes before harvesting, cells were pulse-labelled with 10 μM BrDU. After overnight fixation in ice-cold 70% ethanol, cells were resuspended in 2 M HCl for 30 min at room temperature (RT), then washed with 0.1 M Na2B4O7 and blocked with PBS containing 0.5% Tween-20 and 1% BSA. BrDU incorporation was analysed using anti-BrdU antibody clone MoBu-1 (Exbio, Vestec, Czech Republic) and a secondary anti-mouse-FITC antibody (Sigma-Aldrich, St. Louis, MO). Cells were washed with PBS and stained with 0.1 mg/mL propidium iodide and 0.5 mg/mL RNase A for 1 h at RT and analysed by flow cytometry using a 488 nm single beam laser (FACSCalibur, Becton Dickinson, Franklin Lakes, NJ). The percentage of cells with incorporated BrDU was analysed using CellQuest software.
# [10] = MTS cytotoxicity assay, BJ; format: cell-based; conditions: human
# Experimental: as §1
# CCRF-CEM lymphoblasts [11] = test: Phospho-histone H3 (Ser10) mitotic marker, flow cytometry; format: cell-based, human
# Experimental: as §2
# (§3) Treated CCRF-CEM cells were harvested, washed with ice-cold phosphate-buffered saline (PBS), fixed in cold 70% ethanol and stored at −20 °C. Prior to analysis, fixed cells were permeabilised with 0.25% Triton X-100 in PBS for 15 min, blocked in 1% bovine serum, and incubated with anti-phospho-Histone H3 (Ser^10) antibody (Merck Millipore, Burlington, MA). Subsequently, the cells were treated with 50 μg/mL RNAse, stained with propidium iodide and analysed by FACSCalibur (Becton Dickinson, Franklin Lakes, NJ) flow cytometer at 488 nm. Cell cycle distribution (G1, S, and G2/M) was analysed using ModFitLT software (Verity, Topsham, ME), and reflects only viable population prior to the fixing procedure. Particles with lower propidium iodide content than G1 phase cells were classified as non-viable cells with fragmented DNA. Flow cytometry data visualisation was performed using OriginPro 2018b (b9.5.5.409) software (OriginLab Corporation, Northampton, MA)[10].
# [12] = MTS cytotoxicity assay, MRC-5; format: cell-based; conditions: human
# Experimental: as §1
# CCRF-CEM lymphoblasts [13] = test: Cell cycle analysis by flow cytometry (propidium iodide); format: cell-based, human
# Experimental: as §2, §3
# [14] = test system: A549 (lung adenocarcinoma); test: MTS cytotoxicity assay, A549; format: cell-based, human; conditions: Homo sapiens, A549, 72 h, read-out: IC50 cytotoxic activity A549
# Experimental: as §1
SMILES,IC50 [1] [µM],IC50 [2] [µM],IC50 [3] [µM],IC50 [4] [µM],IC50 [5] [µM],IC50 at 72 h [6] [µM],inhibitory activity against tubulin polymerisation (in words) (porcine brain tubulin),IC50 [7] [µM],"BrU, % of positive cells (CCRF-CEM lymphoblasts [8]; 1×IC50, 24 h) [%]","BrU, % of positive cells (CCRF-CEM lymphoblasts [8]; 5×IC50, 24 h) [%]",IC50 (U2OS (osteosarcoma)) [µM],"BrDU, % of positive cells (CCRF-CEM lymphoblasts [9]; 1×IC50, 24 h) [%]","BrDU, % of positive cells (CCRF-CEM lymphoblasts [9]; 5×IC50, 24 h) [%]",IC50 at 72 h [10] [µM],"pH3Ser10, % of positive cells (CCRF-CEM lymphoblasts [11]; 1×IC50, 24 h) [%]","pH3Ser10, % of positive cells (CCRF-CEM lymphoblasts [11]; 5×IC50, 24 h) [%]",IC50 at 72 h [12] [µM],"<G1 (sub-G1, fragmented DNA), % of positive cells (CCRF-CEM lymphoblasts [13]; 1×IC50, 24 h) [%]",">G2/M (polyploidy), % of positive cells (CCRF-CEM lymphoblasts [13]; 1×IC50, 24 h) [%]","G0/G1, % of positive cells (CCRF-CEM lymphoblasts [13]; 1×IC50, 24 h) [%]",other results
"COc1c(Cn2cc([C@]3(O)CC[C@H]4[C@@H]5CCc6cc(O)ccc6[C@H]5CC[C@@]43C)nn2)cc(C)cc1Cn1cc([C@]2(O)CC[C@H]3[C@@H]4CCc5cc(O)ccc5[C@H]4CC[C@@]32C)nn1 [ED8, (17β,17′β)-17,17′-[(2-Methoxy-5-methylbenzene-1,3-diyl)bis(methanediyl-1H-1,2,3-triazole-1,4-diyl)]bisestra-1,3,5(10)-triene-3,17-diol]",3.44 ± 0.69,2.01 ± 0.12,0.69 ± 0.15,13.1 ± 3.69,1.77 ± 0.16,0.079 ± 0.048,comparable or better inhibitory activity,1.38 ± 0.18,59.19,3.11,6.93 ± 1.16,45.06,5.15,> 50,11.01,0.63,> 50,16.29,7.25,34.59,"IC50 cytotoxic activity CEM-DNR [1]: maintained its activity; IC50 cytotoxic activity K562-TAX [4]: sensitive; G2/M, % of positive cells (CCRF-CEM lymphoblasts [13]; 1×IC50, 24 h): 31.94%; S, % of positive cells (CCRF-CEM lymphoblasts [13]; 1×IC50, 24 h): 33.47%; <G1 (sub-G1, fragmented DNA), % of positive cells (CCRF-CEM lymphoblasts [13]; 5×IC50, 24 h): 24.86%; >G2/M (polyploidy), % of positive cells (CCRF-CEM lymphoblasts [13]; 5×IC50, 24 h): 10.51%; G0/G1, % of positive cells (CCRF-CEM lymphoblasts [13]; 5×IC50, 24 h): 4.71%; G2/M, % of positive cells (CCRF-CEM lymphoblasts [13]; 5×IC50, 24 h): 78.93%; S, % of positive cells (CCRF-CEM lymphoblasts [13]; 5×IC50, 24 h): 16.36%; IC50 [14]: > 50 µM"
"CC(=O)Oc1c(Cn2cc([C@]3(O)CC[C@H]4[C@@H]5CCc6cc(O)ccc6[C@H]5CC[C@@]43C)nn2)cc(C)cc1Cn1cc([C@]2(O)CC[C@H]3[C@@H]4CCc5cc(O)ccc5[C@H]4CC[C@@]32C)nn1 [ED7, 2,6-Bis({4-[(17β)-3,17-dihydroxyestra-1,3,5(10)-trien-17-yl]-1H-1,2,3-triazol-1-yl}methyl)-4-methylphenyl acetate]",> 50,1.79 ± 0.17,0.77 ± 0.13,> 50,1.61 ± 0.087,0.014 ± 0.002,comparable or better inhibitory activity,1.29 ± 0.13,52.67,27.20,3.86 ± 1.39,9.50,5.65,> 50,0.68,11.22,> 50,40.74,7.12,32.36,"G2/M, % of positive cells (CCRF-CEM lymphoblasts [13]; 1×IC50, 24 h): 33.76%; S, % of positive cells (CCRF-CEM lymphoblasts [13]; 1×IC50, 24 h): 33.88%; <G1 (sub-G1, fragmented DNA), % of positive cells (CCRF-CEM lymphoblasts [13]; 5×IC50, 24 h): 45.33%; >G2/M (polyploidy), % of positive cells (CCRF-CEM lymphoblasts [13]; 5×IC50, 24 h): 7.43%; G0/G1, % of positive cells (CCRF-CEM lymphoblasts [13]; 5×IC50, 24 h): 32.48%; G2/M, % of positive cells (CCRF-CEM lymphoblasts [13]; 5×IC50, 24 h): 32.87%; S, % of positive cells (CCRF-CEM lymphoblasts [13]; 5×IC50, 24 h): 34.65%; IC50 [14]: > 50 µM"
"C[C@]12CC[C@@H]3c4ccc(O)cc4CC[C@H]3[C@@H]1CC[C@@]2(O)c1cn(Cc2ccc(O)c(Cn3cc([C@]4(O)CC[C@H]5[C@@H]6CCc7cc(O)ccc7[C@H]6CC[C@@]54C)nn3)n2)nn1 [ED12, 17,17′-[(3-Hydroxypyridine-2,6-diyl)bis(methylene-1H-1,2,3-triazole-1,4-diyl)]di[estra-1,3,5(10)-triene-3,17β-diol]]",> 50,10.5 ± 2.48,4.52 ± 0.64,> 50,8.78 ± 0.88,0.657 ± 0.132,comparable or better inhibitory activity; also recorded: comparable to that of the original ED,6.14 ± 0.93,33.92,8.14,16.8 ± 3.46,12.43,7.46,11.3 ± 1.41,13.49,47.08,14.2 ± 3.52,11.00,17.19,4.79,"G2/M, % of positive cells (CCRF-CEM lymphoblasts [13]; 1×IC50, 24 h): 66.70%; S, % of positive cells (CCRF-CEM lymphoblasts [13]; 1×IC50, 24 h): 28.50%; <G1 (sub-G1, fragmented DNA), % of positive cells (CCRF-CEM lymphoblasts [13]; 5×IC50, 24 h): 16.07%; >G2/M (polyploidy), % of positive cells (CCRF-CEM lymphoblasts [13]; 5×IC50, 24 h): 14.18%; G0/G1, % of positive cells (CCRF-CEM lymphoblasts [13]; 5×IC50, 24 h): 22.95%; G2/M, % of positive cells (CCRF-CEM lymphoblasts [13]; 5×IC50, 24 h): 32.79%; S, % of positive cells (CCRF-CEM lymphoblasts [13]; 5×IC50, 24 h): 44.26%; IC50 [14]: > 50 µM"
